Measured values taken from patent US20200392107A1, “CYCLIC AMINE DERIVATIVE AND MEDICAL USE THEREOF” (Toray Industries, Inc., priority 2018, published 2020).

Experiments:
[1] = test system: mouse alopecia areata model; test: Mouse alopecia areata model; format: in vivo; conditions: 10 mg/kg orally once daily for 42 days, Day 49 to Day 90; C3H/HeJ mice
Method: The effect of the cyclic amine derivative (I) or a pharmacologically acceptable salt thereof in a mouse alopecia areata model was evaluated using increase in the hair loss score as an index of worsening of symptoms. The mouse alopecia areata model was prepared by a partially modified method by Wang et al. (Journal of Investigative Dermatology, 2015, vol. 135, p. 2530-2532).
Female C3H/HeJ mice (CLEA Japan, Inc.) with spontaneous hair loss in 70% or more of the body surface were used as donor mice. The donor mice were euthanized by cervical dislocation, and then the groin, axilla, and auricular lymph nodes were aseptically removed. […]
On Day 49, photographs of the back and the abdomen of the mice were taken under isoflurane anesthesia. The status of hair loss was evaluated by a partially modified method by Alli et al. (Journal of Immunology, 2012, vol. 188, p. 477-486). In other words, the ratio of the area of hair loss site to the body surface area was scored in accordance with the criteria mentioned in Table 4, and regarded as the hair loss score. Specifically, the hair loss score was determined based on the numerical value of the ratio calculated from Formula (4): […]
Grouping was performed using the mouse hair loss score calculated on Day 49 as an index (the hair loss score on Day 49 (mean±standard error): 3.6±0.66). […]

[2] = test system: oxazolone-induced mouse atopic dermatitis model; test: Oxazolone-induced mouse atopic dermatitis model; format: in vivo; conditions: 10 mg/kg orally once daily for 15 days from sensitization day; BALB/c mice; vs vehicle, P<0.05
Method: Using increase in the ear thickness as an index of exacerbation of symptoms, the effect of the cyclic amine derivative (I) or a pharmacologically acceptable salt thereof in an oxazolone-induced mouse atopic dermatitis model was evaluated. The oxazolone-induced mouse atopic dermatitis model was prepared by a partially modified method by Nakajima et al. (Journal of Investigative Dermatology, 2014, Vol. 134, p. 2122-2130).
BALB/c mice (female, 7 weeks old) (Charles River Laboratories Japan, Inc.) were used at 8 weeks old after preliminary breeding. To the back of the mice, 25 μL of a 3 w/v % oxazolone solution dissolved in ethanol was applied to sensitize the mice. Every other day from 5 days to 13 days after the sensitization, 10 μL each of a 0.6 w/v % oxazolone solution dissolved in ethanol was applied to both sides of the right auricle of the sensitized mice to induce inflammation.
A test compound at a dose of 10 mg/kg was administered to the mice once daily for 15 days from the sensitization day to 14 days after sensitization. As the test compound, the compound of Example 1, the compound of Example 4, and the compound of Example 9 were used. The compound of Example 1, the compound of Example 4, and the compound of Example 9 were suspended in a 0.5 w/v % methylcellulose solution and orally administered. The group in which the compound of Example 1 was administered to mice was defined as the Example-1 compound administration group, the group in which the compound of Example 4 was administered was defined as the Example-4 compound administration group, and the group in which the compound of Example 9 was administered was defined as the Example-9 compound administration group. In the vehicle administration group, a vehicle of each test compound (0.5 w/v % methylcellulose solution) was similarly administered.
The right ear thickness before application of the oxazolone solution (before sensitization) on the sensitization day and the right ear thickness on the next day of final induction were measured with a digital micrometer (Mitutoyo Corporation). […]

| Compound | increase in the hair loss score (Day 91) [1] | increase in the ear thickness (change in the ear thickness, next day of final induction) [2] |
| --- | --- | --- |
| CC(=O)N1CCCC[C@@H]1C(=O)Nc1cc(Cl)c2c(c1)CCN2Cc1ccc(C(F)(F)F)cc1 [Example 4, (R)-1-acetyl-N-(7-chloro-1-(4-(trifluoromethyl)benzyl)indolin-5-yl)piperidine-2-carboxamide] | suppressed | statistically significantly suppressed |
| CC(=O)N1CCCC[C@@H]1C(=O)Nc1cc(Cl)c2c(c1)CCN2C[C@H]1CC[C@H](C(F)(F)F)CC1 [Example 9, (R)-1-acetyl-N-(7-chloro-1-((trans-4-(trifluoromethyl)cyclo-hexyl)methyl)indolin-5-yl)piperidine-2-carboxamide] | – | statistically significantly suppressed |
| CC(=O)N1CCCC[C@@H]1C(=O)Nc1cc(Cl)c2c(c1)CCCN2Cc1ccc(C(F)(F)F)cc1 [Example 1, (R)-1-acetyl-N-(8-chloro-1-(4-(trifluoromethyl)benzyl)-1,2,3,4-tetrahydroquinolin-6-yl)piperidine-2-carboxamide] | – | statistically significantly suppressed |
